Results published in US11896580B2, “Composition for improving milk quality and preparation method and application thereof” (CHINA AGRICULTURAL UNIVERSITY, priority 2020, dated 2024).

Columns and labels:
[1] = system: Holstein cows having somatic cell counts of 300,000/mL to 1,000,000/mL; assay: Analysis of the DHI indicators of milk after subcutaneous injection of melatonin; assay type: in vivo
Description: (1) According to the monthly DHI test reports from the dairy farm, Holstein cows having somatic cell counts of 300,000/mL to 1,000,000/mL are selected to be fed separately, and are ensured to have no significant difference in physical health. Season groups: spring n=90, summer n=74, autumn n=83, winter n=81 (number of cows). Age groups: 2-year-old n=23; 3-year-old n=80; 4-year-old n=66; 5-year-old n=56; 6-year-old n=27; 7-year-old n=19 (number of cows). Lactation period groups: peak-lactation n=15, mid-lactation n=38, end-lactation n=59 (number of cows) (initial-lactation: days 1-15 after calving; peak-lactation: days 16-100 after calving; mid-lactation: days 101-200 after calving; end-lactation: day 201 after calving to weaning).
(2) The dairy cows having high somatic cell counts are injected with 2 mL melatonin solution every day for 4 consecutive days in each month. 15 days after the injection, fresh milk was collected and stored in 50 mL centrifuge tubes, and was tested for the changes in somatic cell counts. The cows were fed with total mixed ration, and were fed three times at 06:00, 12:00, and 18:00 respectively. Then, the cows entered the sports ground to move freely, drink water and rest.
(3) The sampling bottles were numbered and added with 2-3 drops of potassium dichromate saturated solution, and were used for collecting the milk samples from the milk by the first milking of the cows. The milk sample for each cow was in a volume of 40 mL and placed in a centrifuge tube. After sampling, all the remaining milk was drained from the tubes which were cleaned to avoid contamination between the samples. The samples were stored at 2-7° C. The instrument for measuring the DHI indicators is Milkscan FT+&FC automatic milk compositional analyzer and somatic cell counter. The measurement was carried out in the National Laboratory for Preparation of Standard Materials of DHI.

cows = assay: Blood indicators of cows after injection of melatonin; settings: in vivo
[2] = 2-year-old cows, after injection
[3] = 3-year-old cows, after injection
[4] = 4-year-old cows, after injection
[5] = 5-year-old cows, after injection
[6] = 6-year-old cows, after injection
[7] = 7-year-old cows, after injection
[8] = peak-lactation, after injection

## COc1ccc2[nH]cc(CCNC(C)=O)c2c1 [melatonin]
[1]; [2]
  dry matter contents: 13.87%±0.27
  fat contents: 4.54%±0.26
  lactose contents: 5.19%±0.03
  milk production: 32.12 ± 1.63 kg/day
  protein contents: 3.41%±0.09
  somatic cell scores: 3.87±0.33
  urea nitrogen contents: 13.90 ± 0.80 mg/dL
[1]; [3]
  dry matter contents: 13.57%±0.13
  fat contents: 4.36%±0.11
  lactose contents: 5.03%±0.02
  milk production: 32.11 ± 0.96 kg/day
  protein contents: 3.44%±0.04
  somatic cell scores: 4.31±0.18
  urea nitrogen contents: 13.58 ± 0.46 mg/dL
[1]; [4]
  dry matter contents: 14.18%±0.15
  fat contents: 4.69%±0.13
  lactose contents: 4.94%±0.03
  milk production: 30.03 ± 1.22 kg/day
  protein contents: 3.66%±0.06
  somatic cell scores: 4.68±0.18
  urea nitrogen contents: 13.32 ± 0.49 mg/dL
[1]; [5]
  dry matter contents: 13.87%±0.18
  fat contents: 4.62%±0.16
  lactose contents: 4.86%±0.05
  milk production: 33.56 ± 1.52 kg/day
  protein contents: 3.55%±0.07
  somatic cell scores: 4.04±0.19
  urea nitrogen contents: 14.09 ± 0.59 mg/dL
[1]; [6]
  dry matter contents: 14.13%±0.24
  fat contents: 5.27%±0.21
  lactose contents: 4.91%±0.06
  milk production: 35.19 ± 2.67 kg/day
  protein contents: 3.38%±0.07
  somatic cell scores: 5.19±0.27
  urea nitrogen contents: 15.79 ± 0.94 mg/dL
[1]; [7]
  dry matter contents: 13.48%±0.32
  fat contents: 4.66%±0.37
  lactose contents: 4.93%±0.06
  milk production: 30.34 ± 2.08 kg/day
  protein contents: 3.32%±0.07
  somatic cell scores: 5.03±0.29
  urea nitrogen contents: 15.11 ± 1.34 mg/dL
[1]; autumn, after injection
  dry matter contents: 14.10%±0.14
  fat contents: 4.68%±0.13
  lactose contents: 5.07%±0.04
  milk production: 32.07 ± 1.05 kg/day
  protein contents: 3.64%±0.05
  urea nitrogen contents: 11.72 ± 0.36 mg/dL
[1]; autumn, after injection (second value of before VS after)
  somatic cell scores: 4.55±0.16
[1]; end-lactation, after injection
  dry matter contents: 13.47%±0.13
  fat contents: 4.18%±0.12
  milk production: 31.25 ± 1.29 kg/day
  protein contents: 3.40%±0.04
  somatic cell scores: 1.99±0.15
  urea nitrogen contents: 12.04 ± 0.38 mg/dL
[1]; mid-lactation, after injection
  dry matter contents: 13.56%±0.14
  fat contents: 4.22%±0.11
  lactose contents: 5.19%±0.02
  milk production: 39.08 ± 1.79 kg/day
  protein contents: 3.45%±0.05
  somatic cell scores: 2.00±0.17
  urea nitrogen contents: 12.11 ± 0.54 mg/dL
[1]; [8]
  dry matter contents: 13.17%±0.29
  fat contents: 3.87%±0.26
  milk production: 38.80 ± 2.06 kg/day
  protein contents: 3.35%±0.06
  somatic cell scores: 2.04±0.24
  urea nitrogen contents: 11.12 ± 0.64 mg/dL
[1]; spring, after injection
  dry matter contents: 13.92%±0.15
  fat contents: 4.78%±0.14
  lactose contents: 4.94%±0.02
  milk production: 32.11 ± 1.15 kg/day
  protein contents: 3.49%±0.04
  urea nitrogen contents: 14.35 ± 0.45 mg/dL
[1]; spring, after injection (second value of before VS after), 2 mL/day s.c., 4 days, milk 15 days after
  somatic cell scores: 4.89±0.15
[1]; summer, after injection
  dry matter contents: 13.42%±0.13
  fat contents: 4.20%±0.12
  lactose contents: 5.06%±0.02
  milk production: 32.69 ± 1.00 kg/day
  protein contents: 3.45%±0.04
  urea nitrogen contents: 14.19 ± 0.50 mg/dL
[1]; summer, after injection (second value of before VS after)
  somatic cell scores: 4.09±0.20
[1]; whole year, n=328, p<0.01
  somatic cell score reduced by: 63.54%
[1]; whole year, n=328, p<0.05
  fat content of milk reduced by: 11.31%
  lactose content increased to: 4.74%
  protein content of milk increased by: 3.79%
  urea nitrogen content of milk reduced by: 11.08%
[1]; winter, after injection
  dry matter contents: 13.65%±0.12
  fat contents: 4.75%±0.11
  lactose contents: 4.84%±0.04
  milk production: 31.82 ± 1.17 kg/day
  protein contents: 3.43%±0.05
  urea nitrogen contents: 15.94 ± 0.51 mg/dL
[1]; winter, after injection (second value of before VS after)
  somatic cell scores: 4.34±0.17
cows
  concentration of alanine aminotransferase: increase
  concentration of albumin: increase
  concentration of cortisol: reduce
  concentration of serum lactate dehydrogenase: increase
  number of lymphocytes: reduce
  number of neutrophils: reduce
  number of white blood cells: reduce
